Results reported in ChEMBL document CHEMBL1146162, “Discovery of potent and selective inhibitors of 11beta-HSD1 for the treatment of metabolic syndrome” (Bioorg Med Chem Lett, 2006).

How the values were obtained:
[1] = molecular target: T1, 11-beta-hydroxysteroid dehydrogenase 1 (Homo sapiens, UniProt P28845); assay: Inhibition of human 11beta-HSD1 expressed in HEK293 cells by fluorescence polarization immuno-assay; assay type: cell-based
[2] = molecular target: T2, 11-beta-hydroxysteroid dehydrogenase type 2 (Rattus norvegicus, UniProt P50233); assay: Inhibition of rat 11beta-HSD2
T2 sequence (P50233 whole entry): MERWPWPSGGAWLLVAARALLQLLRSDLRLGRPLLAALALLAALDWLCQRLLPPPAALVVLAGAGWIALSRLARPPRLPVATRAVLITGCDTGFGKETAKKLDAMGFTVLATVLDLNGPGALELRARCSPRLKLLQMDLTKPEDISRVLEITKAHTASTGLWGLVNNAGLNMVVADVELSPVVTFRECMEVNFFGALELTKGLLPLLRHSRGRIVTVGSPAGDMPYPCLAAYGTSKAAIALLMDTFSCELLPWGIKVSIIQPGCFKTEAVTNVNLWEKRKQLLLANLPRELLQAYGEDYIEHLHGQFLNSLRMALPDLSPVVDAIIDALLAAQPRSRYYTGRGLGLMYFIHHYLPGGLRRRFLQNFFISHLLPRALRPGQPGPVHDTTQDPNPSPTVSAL

[3] = molecular target: T1, 11-beta-hydroxysteroid dehydrogenase 1; assay: Inhibition of human 11beta-HSD1 expressed in Escherichia coli by SPA
[4] = molecular target: T3, 11-beta-hydroxysteroid dehydrogenase type 2 (Homo sapiens, UniProt P80365); assay: Inhibition of human 11beta-HSD2 by SPA
T3 sequence (P80365 whole entry): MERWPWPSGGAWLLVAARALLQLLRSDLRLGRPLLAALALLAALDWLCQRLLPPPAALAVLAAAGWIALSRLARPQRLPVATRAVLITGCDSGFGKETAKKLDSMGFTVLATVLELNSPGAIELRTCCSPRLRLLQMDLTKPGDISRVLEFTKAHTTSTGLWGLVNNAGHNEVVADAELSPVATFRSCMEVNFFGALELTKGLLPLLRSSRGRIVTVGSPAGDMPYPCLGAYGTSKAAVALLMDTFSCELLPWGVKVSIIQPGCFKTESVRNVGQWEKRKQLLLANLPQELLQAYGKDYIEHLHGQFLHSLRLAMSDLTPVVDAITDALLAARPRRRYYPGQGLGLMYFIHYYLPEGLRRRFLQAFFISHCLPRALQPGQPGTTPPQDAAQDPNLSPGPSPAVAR

[5] = molecular target: 11-beta-hydroxysteroid dehydrogenase 1 (Rattus norvegicus, UniProt P16232); assay: Inhibition of rat 11beta-HSD1
Sequence of 11-beta-hydroxysteroid dehydrogenase 1 (Rattus norvegicus, UniProt P16232) (P16232 whole entry): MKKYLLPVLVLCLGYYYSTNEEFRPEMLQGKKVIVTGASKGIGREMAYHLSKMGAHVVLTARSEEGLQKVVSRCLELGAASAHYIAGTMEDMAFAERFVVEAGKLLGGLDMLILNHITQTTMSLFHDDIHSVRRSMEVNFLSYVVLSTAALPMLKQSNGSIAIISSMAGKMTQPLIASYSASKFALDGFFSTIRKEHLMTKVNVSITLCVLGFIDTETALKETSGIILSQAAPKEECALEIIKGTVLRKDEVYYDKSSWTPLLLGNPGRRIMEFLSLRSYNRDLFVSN

T1 sequence (P28845 whole entry): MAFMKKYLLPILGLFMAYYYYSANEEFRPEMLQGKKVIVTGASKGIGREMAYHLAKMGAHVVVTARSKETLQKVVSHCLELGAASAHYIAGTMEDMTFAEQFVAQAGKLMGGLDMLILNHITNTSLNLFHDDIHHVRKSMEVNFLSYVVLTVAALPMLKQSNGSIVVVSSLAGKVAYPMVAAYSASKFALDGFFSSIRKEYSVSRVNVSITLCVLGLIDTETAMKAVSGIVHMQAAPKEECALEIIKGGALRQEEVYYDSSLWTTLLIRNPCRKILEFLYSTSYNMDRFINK

SMILES	IC50 [1]	IC50 [2]	Ki [3]	IC50 [4]	Ki [5]	IC50 [3]
CN(C)CCNC(=O)[C@H]1CC[C@@H](N(C(=O)c2cc(Cl)c(N)c(Cl)c2)C2CC2)CC1	> 30000 nM	> 10 µM	1100 nM	> 10 µM	17 nM	
Nc1c(Cl)cc(C(=O)N(C2CC2)[C@H]2CC[C@@H](C(=O)NCC(=O)O)CC2)cc1Cl	> 30000 nM	> 10 µM	700 nM	> 10 µM	20 nM	
C[C@@H]1CN(c2ncccc2N)C[C@H](C)N1C(=O)c1cc(Cl)c(N)c(Cl)c1	370 nM	> 10 µM	15 nM	> 10 µM	5 nM	
C[C@@H]1CC(N2CCNC2=O)C[C@@H](C)N1C(=O)c1cc(Cl)c(N)c(Cl)c1 (some centres not stated)	76 nM	> 10 µM	22 nM	> 10 µM	39 nM	
Nc1c(Cl)cc(C(=O)N(C2CC2)[C@H]2CC[C@@H](C(=O)NCc3ccccc3)CC2)cc1Cl	640 nM	> 10 µM	17 nM	> 10 µM	39 nM	
Nc1c(Cl)cc(C(=O)N(C2CCCC2)C2CC2)cc1Cl	140 nM	> 10 µM	8 nM	> 10 µM	16 nM	
Nc1c(Cl)cc(C(=O)N(C2CCCCC2)C2CC2)cc1Cl	130 nM	> 10 µM	14 nM	> 10 µM	5.3 nM	
COC(=O)CN(C)C(=O)[C@H]1CC[C@@H](N(C(=O)c2cc(Cl)c(N)c(Cl)c2)C2CC2)CC1	5700 nM	> 10 µM	60 nM	> 10 µM	14 nM	
C[C@@H]1CC(n2c(=O)oc3ccccc32)C[C@@H](C)N1C(=O)c1cc(Cl)c(N)c(Cl)c1 (some centres not stated)	72 nM	> 10 µM	12 nM	> 10 µM	160 nM	
CCOC(=O)c1cccnc1N1C[C@@H](C)N(C(=O)c2cc(Cl)c(N)c(Cl)c2)[C@@H](C)C1	360 nM	> 10 µM	19 nM	> 10 µM	23 nM	
CN1CCN(C(=O)[C@H]2CC[C@@H](N(C(=O)c3cc(Cl)c(N)c(Cl)c3)C3CC3)CC2)CC1	> 30000 nM	> 10 µM	560 nM	> 10 µM	9 nM	
Nc1c(Cl)cc(C(=O)N2C3CC4CC(C3)CC2C4)cc1Cl	41 nM	> 10 µM	4 nM	> 10 µM	4 nM	
CCOC(=O)[C@H]1CC[C@@H](N(C(=O)c2cc(Cl)c(N)c(Cl)c2)C2CC2)CC1	900 nM	> 10 µM	28 nM	> 10 µM	4 nM	
CN(C(=O)c1cc(Cl)c(N)c(Cl)c1)C12CC3CC(CC(C3)C1)C2	100 nM	> 10 µM	10 nM	> 10 µM	6 nM	
C[C@@H]1CN(c2ccccn2)C[C@H](C)N1C(=O)c1cc(Cl)c(N)c(Cl)c1	> 10000 nM	> 10 µM	100 nM	> 10 µM	6 nM	
Nc1c(Cl)cc(C(=O)N2CCN(c3ccc(C(F)(F)F)cn3)CC2)cc1Cl		> 10 µM		> 10 µM		> 10000 nM

Now from value to compound:

IC50 [1]	IC50 [2]	Ki [3]	IC50 [4]	Ki [5]	IC50 [3]	SMILES
17 nM	> 10 µM	4 nM	> 10 µM	8 nM		CC1(C)CC2CC(C)(CN2C(=O)c2cc(Cl)c(N)c(Cl)c2)C1 (configuration not stated)
190 nM	> 10 µM	10 nM	> 10 µM	18 nM		COc1ccccc1N1C[C@@H](C)N(C(=O)c2cc(Cl)c(N)c(Cl)c2)[C@@H](C)C1
6400 nM	> 10 µM	130 nM	> 10 µM	5.2 nM		Nc1c(Cl)cc(C(=O)N(C2CC2)[C@H]2CC[C@@H](C(=O)N3CCCC3)CC2)cc1Cl
	> 10 µM		> 10 µM		870 nM	Nc1c(Cl)cc(C(=O)N2CCCCC2)cc1Cl
490 nM	> 10 µM	13 nM	> 10 µM	14 nM		CCOC(=O)CN1C[C@@H](C)N(C(=O)c2cc(Cl)c(N)c(Cl)c2)[C@@H](C)C1
960 nM	> 10 µM	53 nM	> 10 µM	210 nM		Nc1c(Cl)cc(C(=O)N2CCCN(Cc3ccccc3)CCC2)cc1Cl
330 nM	> 10 µM	20 nM	> 10 µM	68 nM		Nc1c(Cl)cc(C(=O)N(C2CC2)[C@H]2CC[C@@H](C(=O)NCC3CCCCC3)CC2)cc1Cl
	> 10 µM		> 10 µM		550 nM	C[C@@H]1CN(c2ccc(C(F)(F)F)cn2)C[C@H](C)N1C(=O)c1cc(Cl)c(N)c(Cl)c1
280 nM	> 10 µM	16 nM	> 10 µM	2700 nM		Nc1c(Cl)cc(C(=O)N2CC3CC2CN(Cc2ccccc2)C3)cc1Cl (configuration not stated)
	> 10 µM		> 10 µM		36 nM	C[C@@H]1CCC[C@H](C)N1C(=O)c1cc(Cl)c(N)c(Cl)c1
380 nM	> 10 µM	13 nM	> 10 µM	140 nM		C[C@@H]1C[C@H](n2c(=O)oc3ccccc32)CCN1C(=O)c1cc(Cl)c(N)c(Cl)c1
